Data on one compound can be found in publication PMC8904520, “Characterization of a small-molecule inhibitor targeting NEMO/IKKβ to suppress colorectal cancer growth” (Signal Transduction and Targeted Therapy, 2022).

For this test, the target named is T1, NEMO/IKKβ interaction (GST-NEMO1–196 / biotinylated IKKβ peptide) (Homo sapiens, UniProt Q9Y6K9).
T1 construct: made in house; host or cells: E. coli BL21(DE3) (GST-NEMO)
The test can be described thus: FRET assay of NEMO/IKKβ binding. The following applies: 10 nM GST-NEMO1–196, 200 nM biotinylated IKKβ peptide, read-out: IC50 for impairing NEMO/IKKβ interaction. The procedure:
A FRET assay was used to detect the effects of SHK on NEMO/IKKβ binding. 10 nM GST-NEMO1–196 was bound to 200 nM biotinylated IKKβ peptide in binding buffer (50 Mm Tris-HCl, 150 mM NaCl, and 1x cocktail, pH 7.4), and increasing amounts of SHK were titrated into the mixture, incubated for 30 min at room temperature. The detection agent (50 nM streptavidin-conjugated APC and 10 nM LANCE^TM Europium-W1024 labeled anti-GST, Perkin Elmer) was incubated for 30 min at room temperature, and the FRET signal was read on a multifunctional microplate reader (BioTek Synergy NEO).

T1 sequence (Q9Y6K9 1-196): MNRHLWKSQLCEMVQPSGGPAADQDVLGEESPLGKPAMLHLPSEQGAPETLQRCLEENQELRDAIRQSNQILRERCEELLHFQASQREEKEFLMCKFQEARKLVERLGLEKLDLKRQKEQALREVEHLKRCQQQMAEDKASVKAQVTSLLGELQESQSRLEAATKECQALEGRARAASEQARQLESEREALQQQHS

In the case of `CC(C)=CC[C@@H](O)C1=CC(=O)c2c(O)ccc(O)c2C1=O` [SHK, Shikonin], the IC50 worked out at 231 ± 9.39 nM.
